Assays:
γδ T-cells [1] = test: Culture of peripheral blood mononuclear cells with Aredia and IL-2, phenotype by flow cytometer (Example 4); type: cell-based, human; details: peripheral blood monocyte suspension, Aredia 10 μM, IL-2 1,000 U/ml, cultivated 14 days
Procedure: From a healthy donor 30 ml of peripheral blood was collected, and peripheral blood mononuclear cells were collected using a density gradient medium for blood cell separation. The cells collected were washed several times to remove platelets and the like.
The peripheral blood monocytes obtained were suspended in AIM-V medium (10% FCS), and Aredia was added so that the concentration in the peripheral blood monocyte suspension was 10 μM.
This was cultivated for 14 days. During this period, AIM-V (10% FCS) medium and IL-2, at a final concentration of 1,000 U/ml, were added in accordance with the cell proliferation.
Using a flow cytometer, the phenotype of the cells cultured was confirmed to be a cell subset containing at least 95% of γδ T-cells.

γδ T-cells [2] = test: IFN-γ ELISpot confirming activation of γδ T-cells (Example 5); type: cell-based, human; details: 30,000 γδ T-cells + 15,000 immature or mature dendritic cells + Aredia 10 μM, versus γδ T-cells alone, γδ T-cells with Aredia only, FIG. 2
Procedure: In each well of a MultiScreen plate (Millipore), 70% ethanol was added and removed within two minutes.
An anti-interferon(IFN)-γ antibody for coating (clone: 1-D1K, MABTECH ELISpot for Human Interferon-γ kit) was diluted with PBS to 15 μg/ml, and added 100 μl/well.
The γδ T-cells obtained in Example 4 were collected by centrifugation and washed twice with AIM-V.
To 30,000 of the γδ T-cells collected, and 15,000 of the immature or mature dendritic cells obtained in Example 1 Aredia, prepared to have a final concentration of 10 μM, was added, and precultivated in a 15 ml tube (Falcon) under the conditions of 37° C. and 5% CO2 for two hours. At the same time, precultivation of γδ T-cells by themselves, precultivation of γδ T-cells with only Aredia added thereto, and precultivation of the respective dendritic cells by themselves were also conducted. Each culture volume was adjusted to 300 μl.
The plate was washed with PBS after blocking, and each group of cells which completed precultivation under the respective conditions was disseminated in three wells, 100 μl/well.
They were cultured overnight under the conditions of 37° C. and 5% CO2. […]
After confirming that the membrane on the plate was dry, the number of spots was measured using an ELISpot reader (AID Autoimmune Diagnostika GmbH), and the data was analyzed using the AID software version 3.1 (AID).

## NCCC(O)(P(=O)([O-])O)P(=O)([O-])O.O.O.O.O.O.[Na+].[Na+] [Aredia, pamidronate disodium pentahydrate]
γδ T-cells [1]
  γδ T-cells in the cultured cell subset: at least 95%
γδ T-cells [2]
  number of spots (IFN-γ ELISpot): increased only when the dendritic cells and Aredia were added simultaneously to the γδ T-cells
  spot intensity (IFN-γ ELISpot): increased only when the dendritic cells and Aredia were added simultaneously to the γδ T-cells

— patent US8513010B2, “Dendritic cells pulsed with a bisphosphonate” (Medinet Co. Ltd., priority 2004, dated 2013)
